# Species: Rattus norvegicus
# Experiment: Open TG-GATES - Regimen: Single
# Assay type: toxicity, organism-based, Sprague-Dawley
# Design: regimen Single, gender Male, age 6 weeks
# Details: in vivo, po, 2000 mg/kg, route gavage, dose level High; for APTT / Bas / Eos / Fbg / Hb / Ht / Lym / MCHC / MCV / Mono / Neu / PT / Plat / RBC / Ret / WBC: tissue Blood; for KIDNEY_L / KIDNEY_R / KIDNEY_TOTAL: tissue Kidney; for LIVER: tissue Liver; for ALP / ALT / AST / BUN / CRE / DBIL / GLC / IP / K / LDH / Na / PL / RALB / TBIL / TC / TG / TP / gamma-GTP: tissue Plasma
compound,measurement,setting,value
C#C[C@]1(O)CC[C@H]2[C@@H]3CCC4=Cc5oncc5C[C@]4(C)[C@H]3CC[C@@]21C [DANAZOL],TERMINAL_BW,3 h,217 g
same,APTT,3 h,22.7 s
same,Bas,3 h,0%
same,Eos,3 h,1%
same,Fbg,3 h,312.2 mg/dL
same,Hb,3 h,13.3 g/dL
same,Ht,3 h,40.5%
same,Lym,3 h,77.2%
same,MCHC,3 h,33%
same,MCV,3 h,62.8 fL
same,Mono,3 h,3.2%
same,Neu,3 h,18.2%
same,PT,3 h,15.5 s
same,Plat,3 h,120.2 x10_4/uL
same,RBC,3 h,644 x10_4/ul
same,Ret,3 h,7.3%
same,WBC,3 h,73.3 x10_2/uL
same,KIDNEY_L,3 h,1 g
same,KIDNEY_R,3 h,1 g
same,KIDNEY_TOTAL,3 h,2 g
same,LIVER,3 h,9.7 g
same,ALP,3 h,1466 IU/L
same,ALT,3 h,45 IU/L
same,AST,3 h,78 IU/L
same,BUN,3 h,13.6 mg/dL
same,CRE,3 h,0.1 mg/dL
same,DBIL,3 h,0 mg/dL
same,GLC,3 h,178.2 mg/dL
same,IP,3 h,8.5 mg/dL
same,K,3 h,4.4 meq/L
same,LDH,3 h,162 IU/L
same,Na,3 h,141 meq/L
same,PL,3 h,138.4 mg/dL
same,RALB,3 h,3.1 g/dL
same,TBIL,3 h,0.02 mg/dL
same,TC,3 h,68.2 mg/dL
same,TG,3 h,99.2 mg/dL
same,TP,3 h,5.4 g/dL
same,gamma-GTP,3 h,1.8 IU/L
same,TERMINAL_BW,6 h,217.1 g
same,APTT,6 h,23.2 s
same,Bas,6 h,0%
same,Eos,6 h,1%
same,Fbg,6 h,282.6 mg/dL
same,Hb,6 h,12.6 g/dL
same,Ht,6 h,39%
same,Lym,6 h,75.4%
same,MCHC,6 h,32.3%
same,MCV,6 h,63.5 fL
same,Mono,6 h,2.8%
same,Neu,6 h,20.6%
same,PT,6 h,16.5 s
same,Plat,6 h,113.2 x10_4/uL
same,RBC,6 h,613 x10_4/ul
same,Ret,6 h,8.1%
same,WBC,6 h,86.2 x10_2/uL
same,KIDNEY_L,6 h,1 g
same,KIDNEY_R,6 h,1 g
same,KIDNEY_TOTAL,6 h,2 g
same,LIVER,6 h,9.6 g
same,ALP,6 h,1348.6 IU/L
same,ALT,6 h,34.8 IU/L
same,AST,6 h,69 IU/L
same,BUN,6 h,12.2 mg/dL
same,CRE,6 h,0.1 mg/dL
same,DBIL,6 h,0 mg/dL
same,GLC,6 h,178 mg/dL
same,IP,6 h,8.5 mg/dL
same,K,6 h,4.5 meq/L
same,LDH,6 h,159.6 IU/L
same,Na,6 h,140.4 meq/L
same,PL,6 h,122.4 mg/dL
same,RALB,6 h,2.9 g/dL
same,TBIL,6 h,0.028 mg/dL
same,TC,6 h,57.6 mg/dL
same,TG,6 h,71.6 mg/dL
same,TP,6 h,5.3 g/dL
same,gamma-GTP,6 h,1.8 IU/L
same,TERMINAL_BW,9 h,216.8 g
same,APTT,9 h,23.7 s
same,Bas,9 h,0%
same,Eos,9 h,0.8%
same,Fbg,9 h,276.2 mg/dL
same,Hb,9 h,12.7 g/dL
same,Ht,9 h,39.3%
same,Lym,9 h,74.6%
same,MCHC,9 h,32.3%
same,MCV,9 h,63.9 fL
same,Mono,9 h,2.8%
same,Neu,9 h,20.8%
same,PT,9 h,16.9 s
same,Plat,9 h,110.6 x10_4/uL
same,RBC,9 h,615.4 x10_4/ul
same,Ret,9 h,7.2%
same,WBC,9 h,77.3 x10_2/uL
same,KIDNEY_L,9 h,1 g
same,KIDNEY_R,9 h,1 g
same,KIDNEY_TOTAL,9 h,2 g
same,LIVER,9 h,9.1 g
same,ALP,9 h,1416.2 IU/L
same,ALT,9 h,31.6 IU/L
same,AST,9 h,73.8 IU/L
same,BUN,9 h,11.6 mg/dL
same,CRE,9 h,0.2 mg/dL
same,DBIL,9 h,0.004 mg/dL
same,GLC,9 h,180.8 mg/dL
same,IP,9 h,9.2 mg/dL
same,K,9 h,4.2 meq/L
same,LDH,9 h,128 IU/L
same,Na,9 h,141.2 meq/L
same,PL,9 h,110.8 mg/dL
same,RALB,9 h,2.9 g/dL
same,TBIL,9 h,0.032 mg/dL
same,TC,9 h,47.2 mg/dL
same,TG,9 h,99.4 mg/dL
same,TP,9 h,5.2 g/dL
same,gamma-GTP,9 h,1.4 IU/L
same,TERMINAL_BW,24 h,217.9 g
same,APTT,24 h,24.3 s
same,Bas,24 h,0%
same,Eos,24 h,1%
same,Fbg,24 h,286.4 mg/dL
same,Hb,24 h,13.3 g/dL
same,Ht,24 h,39.8%
same,Lym,24 h,74.8%
same,MCHC,24 h,33.4%
same,MCV,24 h,62.7 fL
same,Mono,24 h,2.4%
same,Neu,24 h,21.4%
same,PT,24 h,18.6 s
same,Plat,24 h,127.2 x10_4/uL
same,RBC,24 h,635.8 x10_4/ul
same,Ret,24 h,7.2%
same,WBC,24 h,84.4 x10_2/uL
same,KIDNEY_L,24 h,1 g
same,KIDNEY_R,24 h,1 g
same,KIDNEY_TOTAL,24 h,2 g
same,LIVER,24 h,10.5 g
same,ALP,24 h,1879.4 IU/L
same,ALT,24 h,44.4 IU/L
same,AST,24 h,76.8 IU/L
same,BUN,24 h,12.2 mg/dL
same,CRE,24 h,0.1 mg/dL
same,DBIL,24 h,0 mg/dL
same,GLC,24 h,186 mg/dL
same,IP,24 h,6.9 mg/dL
same,K,24 h,4.3 meq/L
same,LDH,24 h,219.6 IU/L
same,Na,24 h,141.6 meq/L
same,PL,24 h,121.2 mg/dL
same,RALB,24 h,3.1 g/dL
same,TBIL,24 h,0 mg/dL
same,TC,24 h,44.6 mg/dL
same,TG,24 h,266.6 mg/dL
same,TP,24 h,5.6 g/dL
same,gamma-GTP,24 h,1.2 IU/L

# Source: ChEMBL document CHEMBL3885861, “Open TG-GATES”
